Here are results for four substances from patent US20240336653A1, “PEPTIDE COMPOUND TARGETING ELASTIN-DERIVED PEPTIDES AND USE THEREOF” (Shenzhen Turier Biotech Co., Ltd., priority 2020, published 2024).

Test [1] relates to bleomycin induced pulmonary fibrosis. Description: Bleomycin (BLM) induced pulmonary fibrosis model in mice. The class given is in vivo, C57BL/6J mice. The conditions noted are these: 150 μg/kg daily intraperitoneal, 14 days, FIG. 5; for degree of pulmonary fibrosis (H&E staining and Masson staining): compared with bleomycin control group; for fibronectin in pulmonary parenchyma (α-SMA and Collagen1 immunohistochemistry): compared with bleomycin group. The protocol:
(§1) Molding method: 78 male C57BL/6J mice, 16-18 g in weight and 6-8 weeks old, provided by Laboratory Animal Center, Sun Yat-sen University, randomly divided into 13 groups: 1) normal control group (Normal), n=6; 2) sham-operated saline control group (Saline), n=6; 3) bleomycin model group (BLM), n=6; and 4) model treatment group: administration of 150 μg/kg series compounds to mice, 10 groups in total, n=6/group. On the 7th day after the operation of bleomycin induced pulmonary fibrosis in mice, mice in the model treatment group are treated with drugs (administration frequency: daily administration/150 μg/kg, intraperitoneal injection). Samples are taken 14 days after administration, and pathological observations are recorded.
(§2) The bleomycin (purchased from TCI Shanghai)) induced pulmonary fibrosis model manifests the following pathological features: bronchiectasis, hydropic degeneration of bronchial epithelial cells, obvious edema and widening of alveolar interstitium, and deposition of a large number of fibroblasts and collagen tissue. The alveolar structure almost completely disappears, filled with fibrous connective tissue, and accompanied by inflammatory cell infiltration. After 14 days of administration, the mice in the model treatment group are treated and sampled. Blood is taken from the retrobulbar vein for detection of serological indicators, and […] is taken for pathological analysis.
(§3) H&E staining: paraffin embedded tissue sections are taken and baked at 60° C. for 1 h. Dewaxing and hydration: xylene for 20 minutes→xylene for 20 minutes→absolute alcohol for 15 minutes→absolute alcohol for 15 minutes→95% alcohol for 10 minutes→90% alcohol for 5 minutes→80% alcohol for 5 minutes. Staining: hematoxylin for 7 minutes→rinsing with tap water→differentiation with 1% hydrochloric acid alcohol for 1 s→rinsing with tap water→eosin staining for 15 s-20 s→rinsing with tap water. Dehydration and transparency: 75% alcohol for 1 s→85% alcohol for 1 s→95% alcohol for 1 s→100% alcohol for 1 s→xylene for 1 s→xylene for 1 s. The sections are aired for 30 minutes and sealed with gum.
Masson staining: drying and dewaxing; mordanting; adding celestine blue staining solution for 2-3 min, and washing with water; adding Mayer hematoxylin staining solution and washing with water; differentiating with acid alcohol differentiation liquid for several seconds, and washing with tap water; adding ponceau magenta staining solution and washing with distilled water; treating with phosphomolybdic acid solution; adding aniline blue staining solution for 5 min; treating with weak acid solution for 2 min; dehydration and transparency, airing and sealing with gum.
Immunohistochemistry: drying sections, dewaxing, and then soaking in double distilled water for 5 minutes. […]

The subject of test [2] is TGF-β. Description: ELISA of TGFβ in serum of mice of the bleomycin model. The conditions noted are these: BLM mice, 150 μg/kg daily intraperitoneal, 14 days, FIG. 6-B. The format is in vivo, C57BL/6J mice. The protocol: as §1, §2
(§4) The occurrence and development of fibrotic diseases are related to TGF-β and MMP-9 induced EMT process. Matrix metalloproteinases (MMPs) are matrix degrading proteases that degrade all components of extracellular matrix. They participate in the pathophysiological process of pulmonary fibrosis, play an important role in the abnormal remodeling of extracellular matrix and destruction of basement membrane, and promote the recruitment of inflammatory cells and fibroblasts. The increased expression of MMP-9 in pulmonary fibrosis animal models and patients, higher than the normal MMP-9 level, may destroy normal tissue structure and increase the migration of inflammatory cells to the disease site. In order to further explore the inhibitory mechanism of polypeptide drugs on bleomycin induced pulmonary fibrosis, we detect the expression of TGFβ, MMP9 cell factors in serum of mice in each group by ELISA. […] We speculate that its mechanism should be related to TGF-β.
(In an ELISA, binding on a coated surface is turned into a signal by an enzyme label.)

Test [3] has as its system CCl4 induced hepatic fibrosis. Description: Carbon tetrachloride (CCl4) induced hepatic fibrosis model in mice. The class given is in vivo, C57BL/6J mice. Conditions: 100.0 μg/kg intraperitoneal, 3 weeks of administration; for aggregation of inflammatory cells in the liver (HE staining) / hepatic fibrosis of mice: FIG. 2; for expression of Collagen I in the liver (immunohistochemistry): FIG. 3; for collagen deposition in the liver (Sirius red staining): FIG. 4. The protocol: Molding method: 72 male C57BL/6J mice, male, 18-22 g in weight and 8 weeks old, provided by Laboratory Animal Center, Sun Yat-sen University, randomly divided into 12 groups: 1) control group (Oil)+saline, intraperitoneal injection, n=6; 2) model control group (CCl4)+saline, intraperitoneal injection, n=6; administration of CCl4 to mice once every three days for 6 weeks; 3) model administration group (CCl4)+100.0 μg/kg series of compounds (group 10), intraperitoneal injection, n=6/group. The mice in the control group are injected with corn oil at the same volume and frequency according to the administration volume of 20% CCl4 at the weight of 5.0 μL/g. Administration frequency: administration of CCl4 to mice once every three days for 6 weeks. After 3 weeks of administration of CCl4 to mice in the model administration group, peptide compounds 1, 5, 7, 11, 12, 13, 17, 18, 21 and 22 are administered for 3 weeks from the 4th week. CCl4 and Oil are purchased from Shanghai Aladdin Biochemical Technology Co., Ltd.
In the CCl4 induced hepatic fibrosis model, the manifestations are: inflammatory cell infiltration around the central vein area, hydropic degeneration of hepatic cells, and increased accumulation of collagen fibers in the portal area and the hepatic interlobular septum. After three weeks of administration, the mice are treated and sampled. Blood is taken from the retrobulbar vein for detection of serological indicators, and liver tissue is taken for pathological analysis.
as §3, with “Hematoxylin-eosin (H&E) staining: paraffin” for “H&E staining: paraffin”, “s→xylene for Is→xylene for 1” for “s→xylene for 1 s→xylene for 1”
Sirius red staining: drying and dewaxing; standing for 5.0 minutes in double distilled water; Sirius red staining for 60-80 minutes in a dark room; washing for 5 s with 0.5% glacial acetic acid; dehydration and transparency, sealing and taking photos.
Immunohistochemistry: drying sections, dewaxing, and then soaking in double distilled water for 5 minutes. Antigen retrieval: putting the shelf where pathological sections are placed into a beaker containing citric acid buffer (PH=6.0), and keeping it under high temperature and pressure for 15 minutes; taking out the beaker and letting it stand at room temperature until the temperature drops to the room temperature, then taking out the sections and putting them into 3.0% hydrogen peroxide for 10 minutes to block the endogenous peroxidase activity, and then washing them with PBS for three times, 5 minutes each time; sealing the tissues with 1.0% BSA for 1 h; removing 1.0% BSA, adding Collagen I antibody on the tissue according to the proportion recommended in the Description, and staying overnight at 4° C.; taking out the pathological sections next day, adding the second antibody with horseradish peroxidase after the room temperature is restored, incubating it at 37° C. for 60 minutes, and then use DAB (diaminobenzidine) ([…], USA) to develop color; and re-staining with hematoxylin staining solution, washing with tap water for 5 minutes, differentiating with 1% hydrochloric acid alcohol, then washing with tap water for 5 minutes again, dehydrating, airing, sealing, and taking photos (H&E staining solution and Sirius red staining solution are purchased from Sangon Biotech (Shanghai) Co., Ltd., and Collagen I antibody is purchased from CST Corporation).

The subject of test [4] is LX2 cells. Description: Activity evaluation in LX2 cell model (α-SMA protein expression). The format is cell-based, human. Conditions: 1.0 μM and 10.0 μM, 48 hours incubation, GAPDH internal reference, FIG. 1. The source says: In LX2 cell model (which can be directly used as the evaluation model of hepatic fibrosis cells in vitro, because LX2 cells are human liver activated stellate cells. The LX2 cells are purchased from China Center for Type Culture Collection of the Chinese Academy of Sciences, Shanghai, China), the anti-fibrosis activities of peptide compounds 1-25 are preliminarily screened, and the expression of the marker α-SMA protein of myofibroblast activation is detected. The peptide compounds 1-25 is subjected to cell incubation for 48 hours by using two concentrations (1.0 μM and 10.0 μM). The control group is given the same volume of Dulbecco's modified Eagle medium (DMEM) (purchased from Gibco in the United States), and GAPDH (purchased from TransGen Biotech) as the internal reference, α-actin (α-SMA) is a symbolic feature that distinguishes myoblast cells from myofibroblasts.

The subject of test [5] is MMP9. Put plainly: ELISA of MMP9 in serum of mice of the bleomycin model. Conditions: BLM mice, 150 μg/kg daily intraperitoneal, 14 days, FIG. 6-A. The format is in vivo, C57BL/6J mice. The protocol: as §1, §2, §4

*1 amine or outer side, *2 acyl side, *3 side chain or, on linkers, in order; H or OH if unused. Primed or numbered codes have the meaning given here. Where no end group is shown, it is not given here. [ ]: non-standard residue; d: D form. The star is where a group is joined. C20 diacid = O=C(O)CCCCCCCCCCCCCCCCCCC(=O)*; γGlu = O=C(O)[C@H](CCC(=O)[*:2])N[*:1]; Iva = CC[C@](C)(N)C(=O)O; PEG2′ = not defined here

As to “(PEG2-PEG2-γGlu-CO(CH2)18CH3)-Val-Iva-Gly-Ser-Pro-Ser-Ala-Gln-Glu-Glu-Ala-Ser-Pro-Ala-NH2 (V[Iva]GSPSAQEEASPA-NH2; not fully specified (N-terminus); printed as (PEG2-PEG2-γGlu-CO(CH2)18CH3)-Val-Iva-Gly-Ser-Pro-Ser-Ala-Gln-Glu-Glu-Ala-Ser-Pro-Ala-NH2) [Compound 13]”, in test [1], the “degree of pulmonary fibrosis (H&E staining and Masson staining)” value (from here on “degree of pulmonary fibrosis”) is on record as “significantly reduced”; the “fibronectin in pulmonary parenchyma (α-SMA and Collagen1 immunohistochemistry)” value (shortened to “fibronectin in pulmonary parenchyma”) is “significantly less than that in bleomycin group”. Also, the “concentration of TGF-β in serum of mice” value in test [2] is “significantly reduce”. In test [3], the “aggregation of inflammatory cells in the liver (HE staining)” value (shortened to “aggregation of inflammatory cells”) was “significantly improved”, the “hepatic fibrosis of mice” value is given as “significantly improved”, the “expression of Collagen I in the liver (immunohistochemistry)” value (“expression of Collagen I in the liver” for short) was “significant therapeutic improvement” and the “collagen deposition in the liver (Sirius red staining)” value (“collagen deposition in the liver” below) is reported as “significant therapeutic improvement”. The “inhibiting and improving the activity of α-SMA (expression of α-SMA protein)” value (“inhibiting and improving the activity” for short) in test [4] is “better effects on inhibiting and improving the activity of α-SMA”. In addition, the “concentration of MMP9 in serum of mice” value in test [5] is “significantly reduce”.
With “(PEG2-PEG2-γGlu-CO(CH2)18CO2H)-Val-Iva-Gly-Ser-Pro-Ser-Ala-Gln-Asp-Glu-Ala-Ser-Pro-Ala-NH2 ({C20 diacid-γGlu-PEG2′-PEG2′}-V[Iva]GSPSAQDEASPA-NH2) [Compound 5]”, in test [1], the “degree of pulmonary fibrosis” value is “significantly reduced”; the “fibronectin in pulmonary parenchyma” value is reported as “significantly less than that in bleomycin group”. Moreover, the “concentration of TGF-β in serum of mice” value in test [2] is “significantly reduce”. In test [3], the “aggregation of inflammatory cells” value is listed as “significantly improved”, the “hepatic fibrosis of mice” value is given as “significantly improved”, the “expression of Collagen I in the liver” value is “significant therapeutic improvement” and the “collagen deposition in the liver” value is listed as “significant therapeutic improvement”. Also, the “inhibiting and improving the activity” value in test [4] was “better effects on inhibiting and improving the activity of α-SMA”. Moreover, the “concentration of MMP9 in serum of mice” value in test [5] was “significantly reduce”.
For “(PEG2-PEG2-γGlu-CO(CH2)18CO2H)-Val-Val-Gly-Ser-Pro-Ser-Ala-Gln-Asp-Glu-Ala-Ser-Pro-Leu-NH2 ({C20 diacid-γGlu-PEG2′-PEG2′}-VVGSPSAQDEASPL-NH2) [Compound 1]”, in test [1], the “degree of pulmonary fibrosis” value is “significantly reduced”; the “fibronectin in pulmonary parenchyma” value is given as “significantly less than that in bleomycin group”. Further, the “concentration of TGF-β in serum of mice” value in test [2] is “significantly reduce”. Also, in test [3], the “aggregation of inflammatory cells” value is “significantly improved”, the “hepatic fibrosis of mice” value is listed as “significantly improved”, the “expression of Collagen I in the liver” value is reported as “significant therapeutic improvement” and the “collagen deposition in the liver” value is on record as “significant therapeutic improvement”. The “inhibiting and improving the activity” value in test [4] is “better effects on inhibiting and improving the activity of α-SMA”. Moreover, the “concentration of MMP9 in serum of mice” value in test [5] was “significantly reduce”.
“Compound 18: cyclic peptide compound, head-to-tail amide (VVGSPSAQDEASPA; head-to-tail cyclisation; Compound 18)”: in test [1], the “degree of pulmonary fibrosis” value is “significantly reduced”; the “fibronectin in pulmonary parenchyma” value is “significantly less than that in bleomycin group”. Further, the “concentration of TGF-β in serum of mice” value in test [2] was “significantly reduce”. In test [3], the “aggregation of inflammatory cells” value was “significantly improved”, the “hepatic fibrosis of mice” value is on record as “significantly improved”, the “expression of Collagen I in the liver” value is given as “significant therapeutic improvement” and the “collagen deposition in the liver” value is given as “significant therapeutic improvement”. Also, in test [4], the “inhibiting and improving the activity” value was “better effects on inhibiting and improving the activity of α-SMA”. Moreover, the “concentration of MMP9 in serum of mice” value in test [5] is listed as “significantly reduce”.
